In ChEMBL document CHEMBL2311510, “A new single-photon emission computed tomography (SPECT) imaging agent for serotonin transporters: [(125)I]Flip-IDAM, (2-((2-((dimethylamino)methyl)-4-iodophenyl)thio)phenyl)methanol” (Bioorg Med Chem Lett, 2013):

How the values were obtained:
Brain [1] = experiment: Biodistribution in Sprague-Dawley rat brain at 11 uCi, iv measured 30 mins post compound dose; assay type: ADME, organism-based; details: in vivo, 0.5 h
Hypothalamus [2] = experiment: Biodistribution in Sprague-Dawley rat hypothalamus at 11 uCi, iv measured 30 mins post compound dose; assay type: ADME, organism-based; details: in vivo, 0.5 h
Cerebellum [3] = experiment: Biodistribution in Sprague-Dawley rat cerebellum at 11 uCi, iv measured 30 mins post compound dose; assay type: ADME, organism-based; details: in vivo, 0.5 h
Nucleic Acid [4] = experiment: Ratio of drug level in hypothalamus to cerebellum in Sprague-Dawley rat at 11 uCi, iv measured 30 mins post compound dose; assay type: ADME, organism-based; details: in vivo, 0.5 h
Blood [5] = experiment: Biodistribution in Sprague-Dawley rat blood assessed as compound level per organ at 11 uCi, iv measured 60 mins post compound dose; assay type: ADME, organism-based; details: in vivo, 1 h
Zone of skin [6] = experiment: Biodistribution in Sprague-Dawley rat skin assessed as compound level per organ at 11 uCi, iv measured 60 mins post compound dose; assay type: ADME, organism-based; details: in vivo, 1 h
Nucleic Acid [7] = experiment: Ratio of drug level in rest of brain region to cerebellum in Sprague-Dawley rat at 11 uCi, iv measured 30 mins post compound dose; assay type: ADME, organism-based; details: in vivo, 0.5 h
Brain [8] = experiment: Biodistribution in Sprague-Dawley rat brain at 11 uCi, iv measured 2 mins post compound dose; assay type: ADME, organism-based; details: in vivo
Brain [9] = experiment: Biodistribution in Sprague-Dawley rat brain assessed as compound level per organ at 11 uCi, iv measured 2 mins post compound dose; assay type: ADME, organism-based; details: in vivo
Spleen = experiment: Biodistribution in Sprague-Dawley rat spleen at 11 uCi, iv measured 2 mins post compound dose; assay type: ADME, organism-based; details: in vivo
Kidney [10] = experiment: Biodistribution in Sprague-Dawley rat kidney assessed as compound level per organ at 11 uCi, iv measured 60 mins post compound dose; assay type: ADME, organism-based; details: in vivo, 1 h
Nucleic Acid [11] = experiment: Ratio of drug level in hypothalamus to cerebellum in Sprague-Dawley rat at 11 uCi, iv measured 2 mins post compound dose; assay type: ADME, organism-based; details: in vivo
Zone of skin [12] = experiment: Biodistribution in Sprague-Dawley rat skin at 11 uCi, iv measured 120 mins post compound dose; assay type: ADME, organism-based; details: in vivo, 2 h
Liver [13] = experiment: Biodistribution in Sprague-Dawley rat liver at 11 uCi, iv measured 120 mins post compound dose; assay type: ADME, organism-based; details: in vivo, 2 h
Pancreas [14] = experiment: Biodistribution in Sprague-Dawley rat pancreas assessed as compound level per organ at 11 uCi, iv measured 60 mins post compound dose; assay type: ADME, organism-based; details: in vivo, 1 h
Zone of skin [15] = experiment: Biodistribution in Sprague-Dawley rat skin at 11 uCi, iv measured 60 mins post compound dose; assay type: ADME, organism-based; details: in vivo, 1 h
Nucleic Acid [16] = experiment: Ratio of drug level in hippocampus to cerebellum in Sprague-Dawley rat at 11 uCi, iv measured 2 mins post compound dose; assay type: ADME, organism-based; details: in vivo
Lung [17] = experiment: Biodistribution in Sprague-Dawley rat lung assessed as compound level per organ at 11 uCi, iv measured 2 mins post compound dose; assay type: ADME, organism-based; details: in vivo
Muscle tissue [18] = experiment: Biodistribution in Sprague-Dawley rat muscle at 11 uCi, iv measured 60 mins post compound dose; assay type: ADME, organism-based; details: in vivo, 1 h
Bone = experiment: Biodistribution in Sprague-Dawley rat bone assessed as compound level per organ at 11 uCi, iv measured 60 mins post compound dose; assay type: ADME, organism-based, Bone element; details: in vivo, 1 h
Muscle tissue [19] = experiment: Biodistribution in Sprague-Dawley rat muscle assessed as compound level per organ at 11 uCi, iv measured 30 mins post compound dose; assay type: ADME, organism-based; details: in vivo, 0.5 h
Pancreas [20] = experiment: Biodistribution in Sprague-Dawley rat pancreas at 11 uCi, iv measured 30 mins post compound dose; assay type: ADME, organism-based; details: in vivo, 0.5 h
Blood [21] = experiment: Biodistribution in Sprague-Dawley rat blood assessed as compound level per organ at 11 uCi, iv measured 30 mins post compound dose; assay type: ADME, organism-based; details: in vivo, 0.5 h
Kidney [22] = experiment: Biodistribution in Sprague-Dawley rat kidney assessed as compound level per organ at 11 uCi, iv measured 2 mins post compound dose; assay type: ADME, organism-based; details: in vivo
Hippocampus [23] = experiment: Biodistribution in Sprague-Dawley rat hippocampus at 11 uCi, iv measured 120 mins post compound dose; assay type: ADME, organism-based; details: in vivo, 2 h
Cerebellum [24] = experiment: Biodistribution in Sprague-Dawley rat cerebellum at 11 uCi, iv measured 2 mins post compound dose; assay type: ADME, organism-based; details: in vivo
Nucleic Acid [25] = experiment: Ratio of drug level in hypothalamus to cerebellum in Sprague-Dawley rat at 11 uCi, iv measured 60 mins post compound dose; assay type: ADME, organism-based; details: in vivo, 1 h
Cortex = experiment: Biodistribution in Sprague-Dawley rat cortex at 11 uCi, iv measured 60 mins post compound dose; assay type: ADME, organism-based; details: in vivo, 1 h
Blood [26] = experiment: Biodistribution in Sprague-Dawley rat blood at 11 uCi, iv measured 60 mins post compound dose; assay type: ADME, organism-based; details: in vivo, 1 h
Hippocampus [27] = experiment: Biodistribution in Sprague-Dawley rat hippocampus at 11 uCi, iv measured 30 mins post compound dose; assay type: ADME, organism-based; details: in vivo, 0.5 h
Striatum [28] = experiment: Biodistribution in Sprague-Dawley rat striatum at 11 uCi, iv measured 30 mins post compound dose; assay type: ADME, organism-based; details: in vivo, 0.5 h
Nucleic Acid [29] = experiment: Ratio of drug level in striatum to cerebellum in Sprague-Dawley rat at 11 uCi, iv measured 120 mins post compound dose; assay type: ADME, organism-based; details: in vivo, 2 h
Lung [30] = experiment: Biodistribution in Sprague-Dawley rat lung at 11 uCi, iv measured 60 mins post compound dose; assay type: ADME, organism-based; details: in vivo, 1 h
Liver [31] = experiment: Biodistribution in Sprague-Dawley rat liver at 11 uCi, iv measured 30 mins post compound dose; assay type: ADME, organism-based; details: in vivo, 0.5 h
Nucleic Acid [32] = experiment: Ratio of drug level in rest of brain region to cerebellum in Sprague-Dawley rat at 11 uCi, iv measured 120 mins post compound dose; assay type: ADME, organism-based; details: in vivo, 2 h
Blood [33] = experiment: Biodistribution in Sprague-Dawley rat blood at 11 uCi, iv measured 30 mins post compound dose; assay type: ADME, organism-based; details: in vivo, 0.5 h
Hypothalamus [34] = experiment: Biodistribution in Sprague-Dawley rat hypothalamus at 11 uCi, iv measured 2 mins post compound dose; assay type: ADME, organism-based; details: in vivo
Pancreas [35] = experiment: Biodistribution in Sprague-Dawley rat pancreas assessed as compound level per organ at 11 uCi, iv measured 2 mins post compound dose; assay type: ADME, organism-based; details: in vivo
Heart = experiment: Biodistribution in Sprague-Dawley rat heart assessed as compound level per organ at 11 uCi, iv measured 60 mins post compound dose; assay type: ADME, organism-based; details: in vivo, 1 h
Muscle tissue [36] = experiment: Biodistribution in Sprague-Dawley rat muscle at 11 uCi, iv measured 2 mins post compound dose; assay type: ADME, organism-based; details: in vivo
Pancreas [37] = experiment: Biodistribution in Sprague-Dawley rat pancreas at 11 uCi, iv measured 2 mins post compound dose; assay type: ADME, organism-based; details: in vivo
Liver [38] = experiment: Biodistribution in Sprague-Dawley rat liver at 11 uCi, iv measured 60 mins post compound dose; assay type: ADME, organism-based; details: in vivo, 1 h
Nucleic Acid [39] = experiment: Ratio of drug level in cortex to cerebellum in Sprague-Dawley rat at 11 uCi, iv measured 60 mins post compound dose; assay type: ADME, organism-based; details: in vivo, 1 h
Blood [40] = experiment: Biodistribution in Sprague-Dawley rat blood at 11 uCi, iv measured 2 mins post compound dose; assay type: ADME, organism-based; details: in vivo
Zone of skin [41] = experiment: Biodistribution in Sprague-Dawley rat skin assessed as compound level per organ at 11 uCi, iv measured 2 mins post compound dose; assay type: ADME, organism-based; details: in vivo
Brain [42] = experiment: Biodistribution in Sprague-Dawley rat brain at 11 uCi, iv measured 120 mins post compound dose; assay type: ADME, organism-based; details: in vivo, 2 h
Striatum [43] = experiment: Biodistribution in Sprague-Dawley rat striatum at 11 uCi, iv measured 2 mins post compound dose; assay type: ADME, organism-based; details: in vivo
Lung [44] = experiment: Biodistribution in Sprague-Dawley rat lung at 11 uCi, iv measured 2 mins post compound dose; assay type: ADME, organism-based; details: in vivo
Pancreas [45] = experiment: Biodistribution in Sprague-Dawley rat pancreas at 11 uCi, iv measured 60 mins post compound dose; assay type: ADME, organism-based; details: in vivo, 1 h
Nucleic Acid [46] = experiment: Ratio of drug level in striatum to cerebellum in Sprague-Dawley rat at 11 uCi, iv measured 60 mins post compound dose; assay type: ADME, organism-based; details: in vivo, 1 h
Nucleic Acid [47] = experiment: Ratio of drug level in hippocampus to cerebellum in Sprague-Dawley rat at 11 uCi, iv measured 30 mins post compound dose; assay type: ADME, organism-based; details: in vivo, 0.5 h

SMILES: CN(C)Cc1cc([125I])ccc1Sc1ccccc1CO
- Drug uptake (Brain [1]): 0.53 % ID/g
- Drug uptake (Hypothalamus [2]): 1 % ID/g
- Drug uptake (Cerebellum [3]): 0.25 % ID/g
- Ratio (Nucleic Acid [4]): 4.01
- Drug uptake (Blood [5]): 3.26 %ID
- Drug uptake (Zone of skin [6]): 6.4 %ID
- Ratio (Nucleic Acid [7]): 2.22
- Drug uptake (Brain [8]): 1.21 % ID/g
- Drug uptake (Brain [9]): 2.52 %ID
- Drug uptake (Spleen): 1.61 % ID/g
- Drug uptake (Kidney [10]): 1.44 %ID
- Ratio (Nucleic Acid [11]): 1.02
- Drug uptake (Zone of skin [12]): 0.13 % ID/g
- Drug uptake (Liver [13]): 0.41 % ID/g
- Drug uptake (Pancreas [14]): 0.1 %ID
- Drug uptake (Zone of skin [15]): 0.2 % ID/g
- Ratio (Nucleic Acid [16]): 0.85
- Drug uptake (Lung [17]): 6.52 %ID
- Drug uptake (Muscle tissue [18]): 0.13 % ID/g
- Drug uptake (Bone): 0.01 %ID
- Drug uptake (Muscle tissue [19]): 17.1 %ID
- Drug uptake (Pancreas [20]): 0.56 % ID/g
- Drug uptake (Blood [21]): 5.07 %ID
- Drug uptake (Kidney [22]): 4.61 %ID
- Drug uptake (Hippocampus [23]): 0.08 % ID/g
- Drug uptake (Cerebellum [24]): 1.5 % ID/g
- Ratio (Nucleic Acid [25]): 2.77
- Drug uptake (Cortex): 0.2 % ID/g
- Drug uptake (Blood [26]): 0.22 % ID/g
- Drug uptake (Hippocampus [27]): 0.66 % ID/g
- Drug uptake (Striatum [28]): 0.78 % ID/g
- Ratio (Nucleic Acid [29]): 1.89
- Drug uptake (Lung [30]): 0.42 % ID/g
- Drug uptake (Liver [31]): 1.28 % ID/g
- Ratio (Nucleic Acid [32]): 1.18
- Drug uptake (Blood [33]): 0.36 % ID/g
- Drug uptake (Hypothalamus [34]): 1.54 % ID/g
- Drug uptake (Pancreas [35]): 0.6 %ID
- Drug uptake (Heart): 0.15 %ID
- Drug uptake (Muscle tissue [36]): 0.26 % ID/g
- Drug uptake (Pancreas [37]): 1.52 % ID/g
- Drug uptake (Liver [38]): 0.48 % ID/g
- Ratio (Nucleic Acid [39]): 1.69
- Drug uptake (Blood [40]): 0.44 % ID/g
- Drug uptake (Zone of skin [41]): 8.86 %ID
- Drug uptake (Brain [42]): 0.06 % ID/g
- Drug uptake (Striatum [43]): 1.28 % ID/g
- Drug uptake (Lung [44]): 3.23 % ID/g
- Drug uptake (Pancreas [45]): 0.28 % ID/g
- Ratio (Nucleic Acid [46]): 2.12
- Ratio (Nucleic Acid [47]): 2.67
